Experimental data: ChEMBL document CHEMBL1146804, “Estrogen receptor ligands. Part 6: Synthesis and binding affinity of dihydrobenzodithiins” (Bioorg Med Chem Lett, 2004)

Key:
[1] = biological target: T1, Estrogen receptor (Homo sapiens, UniProt P03372)
T1 sequence (P03372 whole entry): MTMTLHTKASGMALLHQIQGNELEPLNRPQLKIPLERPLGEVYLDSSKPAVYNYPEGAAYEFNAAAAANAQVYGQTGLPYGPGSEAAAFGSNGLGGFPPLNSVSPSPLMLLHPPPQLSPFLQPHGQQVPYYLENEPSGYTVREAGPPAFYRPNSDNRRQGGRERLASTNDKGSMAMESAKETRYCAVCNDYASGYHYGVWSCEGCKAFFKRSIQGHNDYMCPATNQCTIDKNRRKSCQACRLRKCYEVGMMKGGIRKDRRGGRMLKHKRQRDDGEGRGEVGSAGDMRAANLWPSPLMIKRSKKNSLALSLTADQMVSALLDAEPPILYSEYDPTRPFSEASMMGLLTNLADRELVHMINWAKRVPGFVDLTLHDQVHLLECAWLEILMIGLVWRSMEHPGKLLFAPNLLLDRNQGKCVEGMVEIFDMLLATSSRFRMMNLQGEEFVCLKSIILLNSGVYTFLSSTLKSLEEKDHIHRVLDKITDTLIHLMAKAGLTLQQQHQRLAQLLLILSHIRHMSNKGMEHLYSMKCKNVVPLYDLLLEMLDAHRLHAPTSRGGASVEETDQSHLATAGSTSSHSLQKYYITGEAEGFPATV
Description: Binding affinity for human estrogen receptor alpha

[2] = system: MCF7; test: Inhibition of MCF-7 cancer cell proliferation; Average of 2 measurements; format: functional, cell-based; conditions: Homo sapiens
[3] = system: MCF7; test: Inhibition of MCF-7 cancer cell proliferation; format: functional, cell-based; conditions: Homo sapiens
[4] = biological target: Estrogen receptor beta (Homo sapiens, UniProt Q92731)
Description: Binding affinity for human estrogen receptor beta

[5] = system: MCF7; test: Inhibition of MCF-7 cancer cell proliferation; Average of 5 measurements; format: functional, cell-based; conditions: Homo sapiens
[6] = system: MCF7; test: Inhibition of MCF-7 cancer cell proliferation; Average of 7 measurements; format: functional, cell-based; conditions: Homo sapiens

Estrogen receptor beta, sequence (Q92731 whole entry): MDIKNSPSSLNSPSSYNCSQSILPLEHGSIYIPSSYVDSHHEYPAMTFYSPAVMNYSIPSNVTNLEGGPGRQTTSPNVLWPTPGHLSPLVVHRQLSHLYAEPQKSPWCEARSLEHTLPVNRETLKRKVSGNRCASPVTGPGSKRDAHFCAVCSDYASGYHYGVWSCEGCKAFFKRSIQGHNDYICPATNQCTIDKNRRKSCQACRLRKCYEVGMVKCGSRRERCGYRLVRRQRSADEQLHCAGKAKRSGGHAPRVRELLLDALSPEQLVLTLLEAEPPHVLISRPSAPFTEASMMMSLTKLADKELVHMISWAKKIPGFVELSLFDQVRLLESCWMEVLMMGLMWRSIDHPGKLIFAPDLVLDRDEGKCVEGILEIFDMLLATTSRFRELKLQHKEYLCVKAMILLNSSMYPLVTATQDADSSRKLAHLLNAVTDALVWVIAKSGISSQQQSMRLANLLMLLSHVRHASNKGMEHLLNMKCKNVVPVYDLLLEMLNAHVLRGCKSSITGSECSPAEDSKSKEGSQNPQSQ

Structure (SMILES)	IC50 [1] [nM]	IC50 [2] [nM]	IC50 [3] [nM]	IC50 [4] [nM]	IC50 [5] [nM]	IC50 [6] [nM]
Oc1cccc([C@H]2Sc3cc(O)ccc3O[C@H]2c2ccc(OCCN3CCCCC3)cc2)c1	4	0.4				
Oc1ccc([C@H]2Sc3cc(O)ccc3S[C@H]2c2ccc(OCCN3CCCC3)cc2)cc1	18		123	266		
Oc1ccc([C@H]2Sc3cc(O)ccc3S[C@H]2c2ccc(OCCN3CCCCC3)c(Br)c2)cc1	5		67	111		
Oc1ccc([C@H]2Sc3cc(O)ccc3S[C@H]2c2ccc(OCCN3CCCCC3)cc2)cc1	21		112	326		
Oc1cccc([C@H]2Sc3cc(O)ccc3O[C@H]2c2ccc(OCCN3CCCC3)cc2)c1	1			38	0.6	
Oc1cccc([C@H]2Sc3cc(O)ccc3S[C@H]2c2ccc(OCCN3CCCCC3)cc2)c1	15		564	583		
Oc1cccc([C@H]2Sc3cc(O)ccc3S[C@H]2c2ccc(OCCN3CCCCC3)c(Br)c2)c1	4		152	161		
Oc1ccc([C@H]2Sc3cc(O)ccc3O[C@H]2c2ccc(OCCN3CCCCC3)cc2)cc1						3
Oc1ccc([C@H]2Sc3cc(O)ccc3S[C@H]2c2ccc(OCCN3CCCC3)c(Br)c2)cc1	4		114	87		
